Assay results: patent US12410208B2, “(2-acetamidyl)thio-beta-D-galactopyranoside derivatives” (Idorsia Pharmaceuticals Ltd, priority 2020, dated 2025)
Like-named read-outs stand apart in the source and are kept apart here.

What was measured:
human Gal-1 (hGal-1) = human Gal-1 (hGal-1) (Homo sapiens, UniProt P09382); experiment: Competitive binding assay: biotinylated hGal-1 binding to microplate-adsorbed asialofetuin (ASF), spectrophotometric; settings: hGal-1 binding to asialofetuin; Table 15; R and S epimers of selected Examples also listed; read-out: IC50 (Galectin-1 inhibition)
human Gal-1 (hGal-1), sequence (P09382 whole entry): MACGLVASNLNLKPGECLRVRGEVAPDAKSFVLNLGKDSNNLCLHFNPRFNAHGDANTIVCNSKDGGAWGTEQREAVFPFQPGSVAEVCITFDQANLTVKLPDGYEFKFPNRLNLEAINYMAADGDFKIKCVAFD
Outline: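 Spectrophotometric competition readout with ABTS after streptavidin-peroxidase (80 ng/mL, 1 h, 4 °C) detection of bound biotinylated hGal-1.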

[1] = target: biotinylated human Gal-3 (hGal-3) (Homo sapiens, UniProt P17931); experiment: Competitive binding assay: biotinylated hGal-3 binding to microplate-adsorbed asialofetuin (ASF), spectrophotometric
biotinylated human Gal-3 (hGal-3), sequence (P17931 whole entry): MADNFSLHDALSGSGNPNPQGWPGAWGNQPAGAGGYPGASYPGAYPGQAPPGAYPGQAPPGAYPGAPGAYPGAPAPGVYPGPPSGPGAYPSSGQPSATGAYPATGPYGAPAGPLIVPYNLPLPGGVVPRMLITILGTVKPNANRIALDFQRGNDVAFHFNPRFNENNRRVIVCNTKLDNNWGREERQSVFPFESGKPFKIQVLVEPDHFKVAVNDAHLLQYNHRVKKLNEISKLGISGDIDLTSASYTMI
Outline: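 Serially diluted compounds competed with asialofetuin on the plate for biotinylated human Gal-3 during a 3 h incubation at 4° C. Streptavidin-peroxidase with ABTS gave the spectrophotometric signal. IC50 values were averaged over repeat runs.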

[2] = Gal-3 inhibition, Table 5, read-out: IC50
[3] = Table 11, hGal-3, read-out: IC50 (Gal-3 inhibition)
[4] = Gal-3 inhibition, Table 7, read-out: IC50
[5] = Gal-3 inhibition, Table 4, read-out: IC50
[6] = Table 12, hGal-3, read-out: IC50 (Gal-3 inhibition)

| Molecule | IC50 (human Gal-1 (hGal-1)) | IC50 [1, 2] | further results |
| --- | --- | --- | --- |
| CN(C)C(=O)C(S[C@@H]1O[C@H](CO)[C@H](O)[C@H](n2cc(-c3cc(F)c(F)c(F)c3)nn2)[C@H]1O)C1(O)CCC(F)(F)CC1 (single isomer, unassigned) [Example 2.44.201R.] | 1710 nM | 1330 nM | – |
| CCN(C)C(=O)C(S[C@@H]1O[C@H](CO)[C@H](O)[C@H](n2cc(-c3ccc(Br)c(F)c3)nn2)[C@H]1O)C1(O)CCOCC1 (stereo partly drawn) [Example 12.41.203., 2-(((2S,3R,4S,5R,6R)-4-(4-(4-Bromo-3-fluorophenyl)-1H-1,2,3-triazol-1-yl)-3,5-dihydroxy-6-(hydroxymethyl)tetrahydro-2H-pyran-2-yl)thio)-N-ethyl-2-(4-hydroxytetrahydro-2H-pyran-4-yl)-N-methylacetamide] | 360 nM | – | IC50 [1, 3]: 40 nM |
| (S)-2-(4,4-Difluoro-1-hydroxycyclohexyl)-2-(((2S,3R,4S,5R,6R)-3,5-dihydroxy-6-(hydroxymethyl)-4-(4-(3,4,5-trifluorophenyl)-1H-1,2,3-triazol-1-yl)tetrahydro-2H-pyran-2-yl)thio)-1-(piperidin-1-yl)ethan-1-one [Example 2.44.208S.] | 30 nM | 20 nM | – |
| 2-(4,4-Difluoro-1-hydroxycyclohexyl)-2-(((2S,3R,4S,5R,6R)-3,5-dihydroxy-6-(hydroxymethyl)-4-(4-(3,4,5-trifluorophenyl)-1H-1,2,3-triazol-1-yl)tetrahydro-2H-pyran-2-yl)thio)-N-(2-fluoro-2-methylpropyl)-N-methylacetamide [Example 2.44.222.] | 350 nM | 130 nM | – |
| O=C(C(S[C@@H]1O[C@H](CO)[C@H](O)[C@H](n2cc(-c3cc(F)c(F)c(F)c3)nn2)[C@H]1O)C1(O)CC(F)(F)C1)N1CCC1 (stereo partly drawn) [Example 2.33.206., 1-(Azetidin-1-yl)-2-(3,3-difluoro-1-hydroxycyclobutyl)-2-(((2S,3R,4S,5R,6R)-3,5-dihydroxy-6-(hydroxymethyl)-4-(4-(3,4,5-trifluorophenyl)-1H-1,2,3-triazol-1-yl)tetrahydro-2H-pyran-2-yl)thio)ethan-1-one] | 1710 nM | 580 nM | – |
| CN(CC(C)(C)C)C(=O)C(S[C@@H]1O[C@H](CO)[C@H](O)[C@H](n2cc(-c3cc(F)c(F)c(F)c3)nn2)[C@H]1O)C1(O)CCC1 (stereo partly drawn) [Example 2.34.228., 2-(((2S,3R,4S,5R,6R)-3,5-Dihydroxy-6-(hydroxymethyl)-4-(4-(3,4,5-trifluorophenyl)-1H-1,2,3-triazol-1-yl)tetrahydro-2H-pyran-2-yl)thio)-2-(1-hydroxycyclobutyl)-N-methyl-N-neopentylacetamide] | 160 nM | 310 nM | – |
| CCN(C)C(=O)[C@H](S[C@@H]1O[C@H](CO)[C@H](O)[C@H](n2cc(-c3cc(F)c(F)c(F)c3)nn2)[C@H]1O)C1(O)CCC1 [Example 2.34.203R., (R)-2-(((2S,3R,4S,5R,6R)-3,5-Dihydroxy-6-(hydroxymethyl)-4-(4-(3,4,5-trifluorophenyl)-1H-1,2,3-triazol-1-yl)tetrahydro-2H-pyran-2-yl)thio)-N-ethyl-2-(1-hydroxycyclobutyl)-N-methylacetamide] | 28300 nM | 3580 nM | – |
| CCN(C(=O)C(S[C@@H]1O[C@H](CO)[C@H](O)[C@H](n2cc(-c3cc(F)c(F)c(F)c3)nn2)[C@H]1OC)C1(O)CCC(F)(F)CC1)C1CCOCC1 (some centres unmarked) [Example 2.44.257.I.] | 180 nM | – | IC50 ([1]; Table 10, hGal-3, read-out: IC50 (Gal-3 inhibition)): 70 nM |
| O=C([C@H](S[C@@H]1O[C@H](CO)[C@H](O)[C@H](n2cc(-c3cc(F)c(F)c(F)c3)nn2)[C@H]1O)C1(O)CCC(F)(F)CC1)N1CC(F)(F)C1 [Example 2.44.227R., (R)-2-(4,4-Difluoro-1-hydroxycyclohexyl)-1-(3,3-difluoroazetidin-1-yl)-2-(((2S,3R,4S,5R,6R)-3,5-dihydroxy-6-(hydroxymethyl)-4-(4-(3,4,5-trifluorophenyl)-1H-1,2,3-triazol-1-yl)tetrahydro-2H-pyran-2-yl)thio)ethan-1-one] | 5130 nM | 1050 nM | – |
| O=C([C@@H](S[C@@H]1O[C@H](CO)[C@H](O)[C@H](n2cc(-c3cc(F)c(F)c(F)c3)nn2)[C@H]1O)C1(O)CCC(F)(F)CC1)N1CC(F)(F)C1 [Example 2.44.227S., (S)-2-(4,4-Difluoro-1-hydroxycyclohexyl)-1-(3,3-difluoroazetidin-1-yl)-2-(((2S,3R,4S,5R,6R)-3,5-dihydroxy-6-(hydroxymethyl)-4-(4-(3,4,5-trifluorophenyl)-1H-1,2,3-triazol-1-yl)tetrahydro-2H-pyran-2-yl)thio)ethan-1-one] | 230 nM | 100 nM | – |
| CCC(O)C(S[C@@H]1O[C@H](CO)[C@H](O)[C@H](n2cc(-c3cc(F)c(F)c(F)c3)nn2)[C@H]1O)C(=O)N(C)CC (stereo partly drawn) [Example 2.60.203., 2-(((2S,3R,4S,5R,6R)-3,5-Dihydroxy-6-(hydroxymethyl)-4-(4-(3,4,5-trifluorophenyl)-1H-1,2,3-triazol-1-yl)tetrahydro-2H-pyran-2-yl)thio)-N-ethyl-3-hydroxy-N-methylpentanamide] | 1020 nM | – | IC50 [1, 4]: 170 nM |
| CN(CCC1CC1)C(=O)C(S[C@@H]1O[C@H](CO)[C@H](O)[C@H](n2cc(-c3cc(F)c(F)c(F)c3)nn2)[C@H]1O)C1(O)CCOCC1 (stereo partly drawn) [Example 2.41.217., N-(2-Cyclopropylethyl)-2-(((2S,3R,4S,5R,6R)-3,5-dihydroxy-6-(hydroxymethyl)-4-(4-(3,4,5-trifluorophenyl)-1H-1,2,3-triazol-1-yl)tetrahydro-2H-pyran-2-yl)thio)-2-(4-hydroxytetrahydro-2H-pyran-4-yl)-N-methylacetamide] | 220 nM | – | IC50 [1, 5]: 60 nM |
| CO[C@@H]1[C@@H](n2cc(-c3cc(F)c(F)c(F)c3)nn2)[C@@H](O)[C@@H](CO)O[C@H]1SC(C(=O)N(C)C1CCOCC1)C1(O)CCC(F)(F)CC1 (stereo partly drawn) [Example 2.44.213.I., 2-(4,4-Difluoro-1-hydroxycyclohexyl)-2-(((2S,3R,4S,5R,6R)-5-hydroxy-6-(hydroxymethyl)-3-methoxy-4-(4-(3,4,5-trifluorophenyl)-1H-1,2,3-triazol-1-yl)tetrahydro-2H-pyran-2-yl)thio)-N-methyl-N-(tetrahydro-2H-pyran-4-yl)acetamide] | 150 nM | – | IC50 [1, 6]: 70 nM |
| CN(CC1CC1)C(=O)[C@H](S[C@@H]1O[C@H](CO)[C@H](O)[C@H](n2cc(-c3cc(F)c(F)c(F)c3)nn2)[C@H]1O)C1(O)CCC1 [Example 2.34.218R., (R)-N-(Cyclopropylmethyl)-2-(((2S,3R,4S,5R,6R)-3,5-dihydroxy-6-(hydroxymethyl)-4-(4-(3,4,5-trifluorophenyl)-1H-1,2,3-triazol-1-yl)tetrahydro-2H-pyran-2-yl)thio)-2-(1-hydroxycyclobutyl)-N-methylacetamide] | 20900 nM | 6080 nM | – |
| O=C(C(S[C@@H]1O[C@H](CO)[C@H](O)[C@H](n2cc(-c3cc(F)c(F)c(F)c3)nn2)[C@H]1O)C(O)Cc1ccccc1)N1CCC1 (stereo partly drawn) [Example 2.64.206., 1-(Azetidin-1-yl)-2-(((2S,3R,4S,5R,6R)-3,5-dihydroxy-6-(hydroxymethyl)-4-(4-(3,4,5-trifluorophenyl)-1H-1,2,3-triazol-1-yl)tetrahydro-2H-pyran-2-yl)thio)-3-hydroxy-4-phenylbutan-1-one] | 5940 nM | – | IC50 [1, 4]: 710 nM |
| CO[C@@H]1[C@@H](n2cc(-c3cc(F)c(F)c(F)c3)nn2)[C@@H](O)[C@@H](CO)O[C@H]1SC(C(=O)N(C)CC1CC1)C1(O)CCC(F)(F)CC1 (stereo partly drawn) [Example 2.44.218.I., N-(Cyclopropylmethyl)-2-(4,4-difluoro-1-hydroxycyclohexyl)-2-(((2S,3R,4S,5R,6R)-5-hydroxy-6-(hydroxymethyl)-3-methoxy-4-(4-(3,4,5-trifluorophenyl)-1H-1,2,3-triazol-1-yl)tetrahydro-2H-pyran-2-yl)thio)-N-methylacetamide] | 80 nM | – | IC50 [1, 6]: 30 nM |
| O=C(C(S[C@@H]1O[C@H](CO)[C@H](O)[C@H](n2cc(-c3cc(F)c(F)c(F)c3)nn2)[C@H]1O)C1(O)CCOCC1)N1CCCCC1 (stereo partly drawn) [Example 2.41.208., 2-(((2S,3R,4S,5R,6R)-3,5-Dihydroxy-6-(hydroxymethyl)-4-(4-(3,4,5-trifluorophenyl)-1H-1,2,3-triazol-1-yl)tetrahydro-2H-pyran-2-yl)thio)-2-(4-hydroxytetrahydro-2H-pyran-4-yl)-1-(piperidin-1-yl)ethan-1-one] | 220 nM | – | IC50 [1, 5]: 90 nM |
| CN(C)C(=O)C(S[C@@H]1O[C@H](CO)[C@H](O)[C@H](n2cc(-c3cc(F)c(F)c(F)c3)nn2)[C@H]1O)C1(O)CCC(F)(F)CC1 (single isomer, unassigned) [Example 2.44.201S.] | 180 nM | 40 nM | – |
| CCN(C)C(=O)C(S[C@@H]1O[C@H](CO)[C@H](O)[C@H](n2cc(-c3cc(F)c(F)c(Cl)c3)nn2)[C@H]1O)C1(O)CCOCC1 (stereo partly drawn) [Example 15.41.203., 2-(((2S,3R,4S,5R,6R)-4-(4-(3-Chloro-4,5-difluorophenyl)-1H-1,2,3-triazol-1-yl)-3,5-dihydroxy-6-(hydroxymethyl)tetrahydro-2H-pyran-2-yl)thio)-N-ethyl-2-(4-hydroxytetrahydro-2H-pyran-4-yl)-N-methylacetamide] | 80 nM | – | IC50 [1, 3]: 60 nM |
